Like-named read-outs stand apart in the source and are kept apart here.
Key:
Phosphodiesterase PDE1 [1] = assay: Phosphodiesterase PDE1 enzyme assay; format: biochemical, bovine; conditions: reference compound tested concurrently, batch 70431; read-out: Concurrent IC50
Phosphodiesterase PDE4 [2] = conditions: reference compound, historical value; cited from earlier work
Phosphodiesterase PDE3 [3] = molecular target: T1, Phosphodiesterase PDE3 (Homo sapiens, UniProt Q14432); conditions: reference compound, historical value; cited from earlier work
Phosphodiesterase PDE2 [4] = molecular target: T2, Phosphodiesterase PDE2 (Homo sapiens, UniProt O00408); assay: Phosphodiesterase PDE2 enzyme assay; format: biochemical; conditions: reference compound tested concurrently, batch 70678; read-out: Concurrent IC50
Phosphodiesterase PDE5 [5] = molecular target: T3, Phosphodiesterase PDE5 (Homo sapiens, UniProt O76074); assay: Phosphodiesterase PDE5 enzyme assay; format: biochemical; conditions: reference compound tested concurrently, batch 70681; read-out: Concurrent IC50
Phosphodiesterase PDE1 [6] = conditions: reference compound, historical value; cited from earlier work
Phosphodiesterase PDE3 [7] = molecular target: T1, Phosphodiesterase PDE3; assay: Phosphodiesterase PDE3 enzyme assay; format: biochemical; conditions: reference compound tested concurrently, batch 70679; read-out: Concurrent IC50
Phosphodiesterase PDE2 [8] = molecular target: T2, Phosphodiesterase PDE2; conditions: reference compound, historical value; cited from earlier work
Phosphodiesterase PDE5 [9] = molecular target: T3, Phosphodiesterase PDE5; conditions: reference compound, historical value; cited from earlier work
Phosphodiesterase PDE4 [10] = assay: Phosphodiesterase PDE4 enzyme assay; format: biochemical, human; conditions: reference compound tested concurrently, batch 70680; read-out: Concurrent IC50
Phosphodiesterase PDE6 [11] = molecular target: T4, Phosphodiesterase PDE6 (Bos taurus, UniProt P11541+P23439); conditions: reference compound, historical value; cited from earlier work
T4 sequence (P11541 1-859): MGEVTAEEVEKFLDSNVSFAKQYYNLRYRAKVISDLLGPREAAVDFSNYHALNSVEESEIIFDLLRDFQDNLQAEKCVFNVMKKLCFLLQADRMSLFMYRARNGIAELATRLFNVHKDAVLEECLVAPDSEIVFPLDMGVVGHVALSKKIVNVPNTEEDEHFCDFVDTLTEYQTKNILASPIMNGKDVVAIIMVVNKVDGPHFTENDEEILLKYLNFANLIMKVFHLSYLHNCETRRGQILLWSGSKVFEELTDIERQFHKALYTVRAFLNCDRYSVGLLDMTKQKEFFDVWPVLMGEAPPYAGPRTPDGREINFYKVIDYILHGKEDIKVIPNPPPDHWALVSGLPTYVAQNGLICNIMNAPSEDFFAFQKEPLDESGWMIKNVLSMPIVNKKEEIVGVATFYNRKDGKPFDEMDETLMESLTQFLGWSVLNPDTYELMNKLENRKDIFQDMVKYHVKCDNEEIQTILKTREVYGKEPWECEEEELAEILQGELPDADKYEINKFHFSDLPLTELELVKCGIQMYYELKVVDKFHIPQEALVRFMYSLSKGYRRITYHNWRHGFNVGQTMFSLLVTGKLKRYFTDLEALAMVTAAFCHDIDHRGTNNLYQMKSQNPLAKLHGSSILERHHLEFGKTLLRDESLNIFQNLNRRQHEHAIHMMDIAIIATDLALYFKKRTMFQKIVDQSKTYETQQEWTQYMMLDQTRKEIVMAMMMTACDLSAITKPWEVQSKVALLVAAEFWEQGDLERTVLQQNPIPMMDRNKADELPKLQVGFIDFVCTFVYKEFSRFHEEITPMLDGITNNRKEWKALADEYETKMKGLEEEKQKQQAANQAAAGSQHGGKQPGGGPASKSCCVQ
T4 sequence (P23439 1-853): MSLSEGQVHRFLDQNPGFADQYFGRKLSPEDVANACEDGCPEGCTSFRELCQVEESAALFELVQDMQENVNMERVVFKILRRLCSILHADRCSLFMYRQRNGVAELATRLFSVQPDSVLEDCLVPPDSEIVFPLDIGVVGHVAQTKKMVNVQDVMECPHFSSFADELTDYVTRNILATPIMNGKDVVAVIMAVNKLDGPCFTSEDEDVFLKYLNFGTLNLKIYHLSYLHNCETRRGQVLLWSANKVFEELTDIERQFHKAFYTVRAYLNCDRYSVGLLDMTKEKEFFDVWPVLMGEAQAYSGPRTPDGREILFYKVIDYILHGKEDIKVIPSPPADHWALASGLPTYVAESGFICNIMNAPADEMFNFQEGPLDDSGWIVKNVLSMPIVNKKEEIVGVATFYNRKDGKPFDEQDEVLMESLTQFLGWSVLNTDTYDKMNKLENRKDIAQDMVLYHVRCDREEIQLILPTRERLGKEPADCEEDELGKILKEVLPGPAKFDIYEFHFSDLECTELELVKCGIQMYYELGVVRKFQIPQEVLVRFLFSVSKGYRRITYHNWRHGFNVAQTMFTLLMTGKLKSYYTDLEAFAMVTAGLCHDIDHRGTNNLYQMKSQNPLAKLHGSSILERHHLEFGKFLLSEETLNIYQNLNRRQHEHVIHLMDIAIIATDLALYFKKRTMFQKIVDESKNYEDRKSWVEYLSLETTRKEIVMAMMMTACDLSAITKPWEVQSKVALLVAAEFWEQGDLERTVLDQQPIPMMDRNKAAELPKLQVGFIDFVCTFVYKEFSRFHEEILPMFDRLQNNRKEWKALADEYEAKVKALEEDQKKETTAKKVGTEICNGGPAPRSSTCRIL

Phosphodiesterase PDE6 [12] = molecular target: T4, Phosphodiesterase PDE6; assay: Phosphodiesterase PDE6 enzyme assay; format: biochemical, bovine; conditions: reference compound tested concurrently, batch 70682; read-out: Concurrent IC50
Procedure: The test material (TNPJCon) was tested using an Enzyme assays that involve PDE enzymes from both bovine and human origin known as PDE1, PDE2, PDE3, PDE4, PDE6. All of the enzyme assays were run on a 1% concentration of TNPJCon. Please note that the IC50 was not determined.

T1 sequence (Q14432 whole entry): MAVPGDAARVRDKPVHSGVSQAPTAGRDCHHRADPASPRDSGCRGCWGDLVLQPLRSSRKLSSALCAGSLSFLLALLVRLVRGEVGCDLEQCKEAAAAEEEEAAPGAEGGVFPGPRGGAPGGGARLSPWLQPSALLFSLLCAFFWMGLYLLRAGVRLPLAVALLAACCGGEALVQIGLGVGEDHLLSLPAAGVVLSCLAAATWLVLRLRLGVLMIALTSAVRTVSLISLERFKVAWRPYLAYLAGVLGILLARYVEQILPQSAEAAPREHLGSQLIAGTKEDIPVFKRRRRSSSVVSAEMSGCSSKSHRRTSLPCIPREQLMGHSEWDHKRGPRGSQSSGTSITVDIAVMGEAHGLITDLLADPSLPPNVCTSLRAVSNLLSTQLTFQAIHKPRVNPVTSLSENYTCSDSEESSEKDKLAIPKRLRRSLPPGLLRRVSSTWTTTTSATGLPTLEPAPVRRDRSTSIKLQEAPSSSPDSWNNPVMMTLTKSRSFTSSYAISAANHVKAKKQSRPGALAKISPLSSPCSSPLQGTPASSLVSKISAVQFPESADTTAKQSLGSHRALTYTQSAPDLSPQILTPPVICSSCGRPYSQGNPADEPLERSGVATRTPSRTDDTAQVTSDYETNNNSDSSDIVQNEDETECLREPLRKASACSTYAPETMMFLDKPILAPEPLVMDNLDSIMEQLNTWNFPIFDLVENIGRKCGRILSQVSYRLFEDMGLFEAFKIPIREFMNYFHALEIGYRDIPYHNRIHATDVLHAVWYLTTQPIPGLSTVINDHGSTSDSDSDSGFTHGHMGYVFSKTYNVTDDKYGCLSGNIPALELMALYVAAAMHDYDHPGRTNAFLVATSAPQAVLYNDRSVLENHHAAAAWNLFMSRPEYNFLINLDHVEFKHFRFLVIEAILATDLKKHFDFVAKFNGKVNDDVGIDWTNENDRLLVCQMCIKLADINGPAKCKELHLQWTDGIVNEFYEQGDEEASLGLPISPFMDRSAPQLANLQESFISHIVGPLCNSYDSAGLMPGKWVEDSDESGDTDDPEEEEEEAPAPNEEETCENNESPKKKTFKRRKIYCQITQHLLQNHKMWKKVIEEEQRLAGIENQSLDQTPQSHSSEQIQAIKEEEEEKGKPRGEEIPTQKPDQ
T2 sequence (O00408 whole entry): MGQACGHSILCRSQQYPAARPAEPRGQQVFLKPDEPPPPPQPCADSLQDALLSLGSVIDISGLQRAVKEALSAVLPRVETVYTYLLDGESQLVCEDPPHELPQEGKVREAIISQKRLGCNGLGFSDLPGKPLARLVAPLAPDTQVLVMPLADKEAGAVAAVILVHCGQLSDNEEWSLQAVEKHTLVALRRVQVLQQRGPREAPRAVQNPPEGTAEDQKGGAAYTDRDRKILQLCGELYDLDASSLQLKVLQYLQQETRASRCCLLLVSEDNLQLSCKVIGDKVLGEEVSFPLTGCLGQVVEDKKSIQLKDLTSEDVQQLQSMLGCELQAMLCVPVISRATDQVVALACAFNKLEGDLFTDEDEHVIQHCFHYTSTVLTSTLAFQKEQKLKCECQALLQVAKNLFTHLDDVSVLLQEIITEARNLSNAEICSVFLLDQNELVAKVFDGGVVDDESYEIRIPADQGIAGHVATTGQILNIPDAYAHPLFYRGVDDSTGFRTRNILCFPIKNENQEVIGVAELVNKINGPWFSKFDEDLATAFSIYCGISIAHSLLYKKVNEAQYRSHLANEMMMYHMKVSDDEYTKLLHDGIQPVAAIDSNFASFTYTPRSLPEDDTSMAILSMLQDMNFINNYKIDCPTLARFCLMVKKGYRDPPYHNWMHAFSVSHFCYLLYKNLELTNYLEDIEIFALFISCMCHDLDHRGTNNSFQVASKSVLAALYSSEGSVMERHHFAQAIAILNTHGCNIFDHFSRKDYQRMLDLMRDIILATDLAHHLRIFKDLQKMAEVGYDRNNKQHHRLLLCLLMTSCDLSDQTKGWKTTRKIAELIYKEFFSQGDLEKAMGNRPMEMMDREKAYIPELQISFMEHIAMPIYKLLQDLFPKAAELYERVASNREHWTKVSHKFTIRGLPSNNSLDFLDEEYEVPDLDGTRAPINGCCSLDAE

IC50 (Phosphodiesterase PDE1 [1]) | IC50 (Phosphodiesterase PDE2 [4]) | IC50 (Phosphodiesterase PDE5 [5]) | IC50 (Phosphodiesterase PDE3 [7]) | IC50 (Phosphodiesterase PDE4 [10]) | SMILES | IC50 (Phosphodiesterase PDE4 [2]) | IC50 (Phosphodiesterase PDE3 [3]) | IC50 (Phosphodiesterase PDE1 [6]) | IC50 (Phosphodiesterase PDE2 [8]) | IC50 (Phosphodiesterase PDE5 [9]) | IC50 (Phosphodiesterase PDE6 [11]) | IC50 (Phosphodiesterase PDE6 [12])
3.76 µM | 81 µM | 65.4 µM | 20.8 µM | 30.8 µM | CC(C)Cn1c(=O)n(C)c(=O)c2[nH]cnc21 [IBMX] | 6.5 µM | 4.6 µM | 1.1 µM | 30 µM | 63 µM | – | –
– | – | – | – | – | CCCOc1ccccc1-c1nc2nn[nH]c2c(=O)[nH]1 [Zaprinast] | – | – | – | – | – | 0.22 µM | 0.281 µM

— patent publication US20070248701A1, “METHODS AND FORMULATIONS FOR INHIBITING NATURALLY OCCURRING PHOSPHODIESTERASE” (priority 2003, published 2007)
